Source: patent publication US10927115B2, “Substituted heterocycles for targeting Hsp90” (Duke University, priority 2012, dated 2021)

Assays:
[1] = system: MDA-MB-468 tumor; experiment: Tumor labeling experiment, frozen sections under fluorescent microscope; assay type: in vivo, NOD/SCID mice; conditions: 1 mg/mouse intraperitoneal; from 2 to 48 h; FIG. 12
Method: MDA-MB-468 tumor cells (5 M cells/mouse) were injected to the flank of NOD/SCID mice. After 3 weeks, tumor volumes reached 400-450 mm^3. Mice were treated/untreated with intraperitoneal injection of compound 10 (1 mg/mouse). After 2, 24, 48 and 72 hours, mice were sacrificed, and tumor tissues were frozen in OCT compound. FITC(+) cells in tumor tissues (frozen sections) were analyzed under fluorescent microscope (Axio Observer). In FIG. 12, the green staining from compound 10 fluorescence appears white or light gray.

[2] = system: MCF cells; experiment: Heat treatment of cells, compound 10 uptake, micro anion-exchange chromatography of extracts; assay type: cell-based; conditions: 10 μM, FIG. 13B
Method: MCF cells were heated to 42° C. or maintained at 37° C. for 60 minutes. Compound 10 was added (10 μM) and after 60 minutes the cells harvested. Extracts were prepared and separated by micro anion-exchange chromatography. Column fractions were analyzed for the presence of compound 10.

[3] = system: MDA-MB-468 tumor; experiment: In vivo detection of compound 10 with optical spectroscopy; design: species or system SCID mice; conditions: 1 mg via tail vein, FIG. 15
Method: MDA-MB-468 tumor cells (1 M cells/mouse) were injected to the flank of SCID mice. Three weeks later, when tumor size reached 5-8 mm in diameter, the experiment was performed. Baseline autofluorescence levels were measured for tumor and normal tissues (skin adjacent to tumor). 1 mg or 0.5 mg of compound 10 was injected via tail vein. After drug injection, fluorescence signals were measured with the optical spectroscopy (˜30 min). Two days after injection, measurement of fluorescence signal was repeated.
Normal: Normal skin adjacent to tumor. All data are normalized to peak fluorescence intensity to compare fluorescence line shapes. […] Measurements were made within a few minutes of injection.

[4] = system: MCF10 (benign) cells; experiment: Probe detection of Hsp90 in cells ± membrane permeabilization with Triton X 100; assay type: cell-based; conditions: MCF10, non-permeabilized; FIG. 5B
Method: (§1) In another experiment, MCF7 (metastatic) and MCF10 (benign) cells were treated with an Hsp90 antibody±membrane permeabilization with Triton X 100. […] After permeabilization the antibody recognizes intracellular Hsp90. […] The experiment was also performed using fluorescein compound 10. […] In FIGS. 5A-5B the green staining from compound 10 fluorescence appears white, while blue from the DAPI-stained nuclei appears gray.

[5] = system: MCF7 (metastatic) cells; experiment: as above; assay type: cell-based; conditions: FIG. 5B
Method: as §1

[6] = system: Huh7 cell line; experiment: Fluorescence microscopy uptake of probe in tumor cells; assay type: cell-based, human; conditions: micromolar concentrations; Huh7, non-metastatic; FIG. 4
Excerpt: (§2) In one experiment, the fluorescein compound 10 was applied at micromolar concentrations to four types of tumor cells. […] The probe (10) fluoresces to give green staining in images obtained; in FIG. 4, the green staining appears white.

[7] = system: MCF-7; experiment: as above; assay type: cell-based, human; conditions: micromolar concentrations, FIG. 4
Excerpt: as §2

[8] = system: MDA-MB 468; experiment: as above; assay type: cell-based, human; conditions: micromolar concentrations, FIG. 4
Excerpt: as §2

[9] = system: Hsp90; experiment: Recovery of compound 10 bound to purified Hsp90 by microanion exchange chromatography; assay type: binding, pig; conditions: excess compound 10, dialysis; Western blot and mass spectrometry; FIG. 13A
Method: Hsp90 was purified from pig mammary gland as described in Hughes et al., Bioorg Med Chem. 2012, 20(10):3298-3305. The purified protein (0.3 g) was mixed with an excess of compound 10. The unbound probe was removed by dialysis and the labeled protein subjected to microanion exchange chromatography using a Pharmacia SMART system. Column fractions (100 μL) were collected and analyzed for fluorescence in a plate reader. […] The chromatography experiment was then repeated on cell extracts prepared from MCF7 and BT474 cells treated with compound 10.

[10] = system: MDA-MB-468 tumor-bearing mice; experiment: Biodistribution of compound 10 in mouse xenografts by flow cytometry; assay type: in vivo, NOD/SCID mice; conditions: 1 mg/mouse intraperitoneally, 2, 24, 48 or 72 hours
Method: MDA-MB-468 cells (5M cells/mouse) were injected to the flank of NOD/SCID mice. When tumors reached 5-10 mm in diameter, tumor-bearing mice were intraperitoneally injected with compound 10 (1 mg/mouse, in 100 μL of DMSO). After 2, 24, 48 or 72 hours, mice were sacrificed and tumors, livers and spleens were harvested. Tumors and livers were digested with collagenase/hyarulonidase/DNase for 1 hour at 37° C., and ficolled to eliminate debris and dead cells, and then washed. Cells in tumor digest were labeled with anti-mouse CD45-biotin+anti-H2-kD-biotin for 15 min on ice, and then 15 min with streptavidin-APC. Tumor cells were analyzed by flow cytometry to detect fluorescence from compound 10. Mouse lineage negative cells were gated for the analysis. Spleen were minced and passed through the strainer. Splenocytes, liver cells and tumor cells were analyzed by flow cytometry to detect fluorescence from compound 10.
Spleen were minced and passed through a strainer to get rid of aggregations/membranous tissue. Cells were stained with violet viability dye. Viable cells were analyzed for their compound 10 uptake.
Liver tissues were minced with blades and digested with triple enzyme buffer (collagenase III, hyarulonidase, DNAse) for 1 h at 37° C., and cells were passed through a strainer to get rid of aggregations. Cells were stained with violet viability dye. Viable cells were analyzed for their compound 10 uptake.
Tumor tissues were minced with blades and digested with triple enzyme buffer (collagenase III, hyarulonidase, DNAse) for 1 h at 37° C., and cells were passed through a strainer to get rid of aggregations. Cells were stained with anti-mouse CD45-biotin/anti-H2-kd-biotin and then streptavidin-APC and violet viability dye. Viable and CD45/H2-kd negative cells were analyzed for their compound 10 uptake.

[11] = system: MDA MB 468 xenografts; experiment: Fluorescence imaging of HSP90 expression in mouse xenografts (IVIS imager, plate reader); assay type: in vivo, Mice
Method: Mice with MDA MB 468 xenografts were injected with either 0.1, 0.5 or 1 mg of compound 10 intravenously. The animals were then immediately imaged in real time in an IVIS Kinetic imager (Caliper Life Science) for the presence of fluorescence at 465ex/520em. After two hours the tumors were excised and examined for the presence of compound 10.
Red image (false, 1 vs. 2) clearly demarks the tumor over background signal (appearing very dark gray in FIG. 14A).
Measurements were made in the IVIS imager or by preparing cells extracts from the tumors and measuring their fluorescence in a microtitre plate reader.

[12] = system: MCF7 cells; experiment: Compound 10 fluorescence in MCF7 cells with anti-Hsp90 antibody or competing compound 5; assay type: cell-based; conditions: FIG. 6B
Method: In FIG. 6B, the compound was added in the presence of an antibody to Hsp90. […] DAPI (blue) highlights the nucleus of the cell. In FIG. 6 the green staining from compound 10 fluorescence appears white, while blue from the DAPI-stained nuclei appears gray.

## Cc1nn(-c2ccc(C(N)=O)c(NCCCOCCOCCOCCOCCOCCCNC(=S)Nc3ccc4c(c3)C(=O)OC43c4ccc(O)cc4Oc4cc(O)ccc43)c2)c2c1C(=O)CC(C)(C)C2 [Compound 10, 2-((1-((3′,6′-dihydroxy-3-oxo-3H-spiro[isobenzofuran-1,9′-xanthen]-5-yl)amino)-1-thioxo-6,9,12,15,18-pentaoxa-2-azahenicosan-21-yl)amino)-4-(3,6,6-trimethyl-4-oxo-4,5,6,7-tetrahydro-1H-indazol-1-yl)benzamide]
[1]
  FITC signal of tumor cells in frozen sections: intense FITC signal
[2]; 60 minutes
  major peak of fluorescence of cell extract: correlates with elution of Hsp90
[2]; 42° C. vs 37° C. for 60 minutes
  effect of heat treatment on uptake: increased uptake
[3]
  fluorescence signal in tumor, Day 3: still retains FITC signal
[3]; normal skin adjacent to tumor
  fluorescence signal at normal site, Day 3: declined to pre-injection baseline level
[3]; within a few minutes of injection
  fluorescence signal, normal skin versus tumor, Day 0: Normal shows higher signal than tumor
[4]
  probe entry and detection of Hsp90: not in MCF10 cells
[5]; MCF7, non-permeabilized
  probe entry and detection of Hsp90: enters and detects Hsp90
[5]; MCF7 compared with MCF10, Triton X 100
  detection of intracellular Hsp90 following permeabilization: detects more intracellular Hsp90 in MCF7s
[6]
  uptake of the probe: does not absorb the probe
[7]
  uptake of the probe: take up the probe readily
[8]
  uptake of the probe: take up the probe readily
[9]
  fluorescence elution profile of labeled purified Hsp90: single peak was recovered by fluorescence that correlated with elution of Hsp90
[10]; FIG. 10A
  accumulation in splenocytes: little accumulation
[10]; FIG. 10B
  accumulation in liver cells: little accumulation
[10]; FIG. 10C
  accumulation in tumor cells: high degree of accumulation
[11]; indicated doses, IVIS imager or tumor cell extracts in plate reader, FIG. 14B, 14C
  accumulation in tumors isolated from mice: accumulates selectively within the tumor mass in a dose dependent manner
[11]; tail vein injection, 465ex/520em, FIG. 14A
  accumulation in the xenograft, real time imaging: rapid accumulation
[12]
  localisation of the probe in the presence of an antibody to Hsp90: accumulate at the membrane
